{
  "source": "paper PMC11434026",
  "about": "“Development and Validation of an LC-MS/MS Assay for the Quantitation of MO-OH-Nap Tropolone in Mouse Plasma: Application to In Vitro and In Vivo Pharmacokinetic Studies” (Molecules, 2024)",
  "test": "Tissue distribution after single IP dose in CD-1 mice",
  "assay_type": "in vivo, mouse",
  "conditions": "for concentration at 2 h: female, CD-1, mouse, 2 h after single IP 5 mg/kg",
  "experimental": "MO-OH-Nap was dissolved in a 5% DMSO, 45% w/v hydroxypropyl-β-cyclodextrin solution in PBS (final concentration 0.625 mg/mL MO-OH-Nap). MO-OH-Nap (5 mg/kg) was administered IP. After dosing, approximately 100 µL of blood was collected in Lithium-Heparin-Microvette 300 µL Capillary Blood Collection Tube (SARSTEDT AG& Co., Nümbrecht, Germany) from the maxillary vein at 5, 15, 30 min and 1, 2, 4, 6, 8, 24, and 48 h. Two blood time points were collected from every mouse and the third time point was the terminal time point, for a total of three time points from each mouse (5 mice/group/per time point). Blood was centrifuged at 4000× g at 4 °C for 10 min to extract plasma. The collected plasma samples were stored at −80 °C until analysis. The specified tissues including liver, lungs, kidney, spleen, heart, and brain were collected at terminal times of 2, 8, 24 and 48 h after dosing. Tissue samples were rinsed with PBS to remove excess blood and blotted with filter paper. After weighing, each tissue sample was individually homogenized with de-ionized water using a TissueLyser II (Qiagen Science, Louisville, KY, USA). A dilution factor of five was used for liver, spleen, brain, lungs, and kidney while the heart was homogenized at a 6-fold dilution factor. All tissues were stored at −80 °C until analysis. Plasma concentrations (ng/mL) and tissue concentrations (ng/g) were determined for each time point collected using LC-MS/MS analysis.",
  "note": "Read-outs that look alike come from different tables or passages of the source.",
  "data": [
    {"smiles": "O=c1c(O)ccccc1-c1ccc2ccccc2c1", "note": "[MO-OH-Nap, MO-OH-Nap tropolone]", "values": [
      {"measurement": "detection in all harvested tissue", "setting": "48 h after single IP 5 mg/kg", "value": "detected"},
      {"measurement": "concentration at 2 h", "setting": "brain, read-out: tissue concentration, brain", "value": 51, "unit": "ng/g"},
      {"measurement": "concentration at 2 h", "setting": "heart, read-out: tissue concentration, heart", "value": 115, "unit": "ng/g"},
      {"measurement": "concentration at 2 h", "setting": "kidney, read-out: tissue concentration, kidney", "value": 750, "unit": "ng/g"},
      {"measurement": "concentration at 2 h", "setting": "liver, read-out: tissue concentration, liver", "value": 1390, "unit": "ng/g"},
      {"measurement": "concentration at 2 h", "setting": "lungs, read-out: tissue concentration, lungs", "value": 181, "unit": "ng/g"},
      {"measurement": "concentration at 2 h", "setting": "spleen, read-out: tissue concentration, spleen", "value": 745, "unit": "ng/g"}
    ]}
  ]
}
